Measurements published in PMC9270327 (Communications Biology, 2022).
Values joined by “and” are separate entries in the source; they are usually repeats but may differ in a detail not shown here. Equal entries are not always repeated. Where two headings read alike, the source gives them in different places.

Tests used:
[1] = target: T1, TMPRSS2 expressed in HEK293T cells (Homo sapiens, UniProt O15393); assay: Inhibition of cellular TMPRSS2 activity on HEK293T cells transiently expressing TMPRSS2; type: cell-based; conditions: 2 h; for normalized fluorescence intensity, HEK293T TMPRSS2, Mean (Fig. 4b): corrected for mock-transfected cells
T1 construct: host or cells: HEK293T (ATCC)
Description: In total, 10,000 Caco-2 cells (ATCC) in 100 µL EMEM medium supplemented with 10% FBS, 100 U/mL penicillin, […] streptomycin, and 2 mM glutamine (all Invitrogen, Germany) were seeded per well in a 96-well plate and incubated at 37 °C for 4 days until full confluency of the cells. The cells were washed two times with PBS and EMEM medium without FBS was added. […] The fluorescence intensity was measured as described above. In all, 20,000 HEK293T cells (ATCC) were seeded in 100 µL DMEM supplemented with 10% FBS, 100 U/mL penicillin, […] streptomycin, and 2 mM glutamine. […] […] […] Fluorescence intensity was measured after 2 h at 37 °C as described above.

[2] = test system: lentiviral pseudoparticles carrying SARS-CoV-2 Omicron BA.1 (B.1.1.529) spike, Caco-2 cells; type: cell-based
TMPRSS2 = TMPRSS2 (Homo sapiens, UniProt O15393)
Chain of TMPRSS2 (O15393 whole entry): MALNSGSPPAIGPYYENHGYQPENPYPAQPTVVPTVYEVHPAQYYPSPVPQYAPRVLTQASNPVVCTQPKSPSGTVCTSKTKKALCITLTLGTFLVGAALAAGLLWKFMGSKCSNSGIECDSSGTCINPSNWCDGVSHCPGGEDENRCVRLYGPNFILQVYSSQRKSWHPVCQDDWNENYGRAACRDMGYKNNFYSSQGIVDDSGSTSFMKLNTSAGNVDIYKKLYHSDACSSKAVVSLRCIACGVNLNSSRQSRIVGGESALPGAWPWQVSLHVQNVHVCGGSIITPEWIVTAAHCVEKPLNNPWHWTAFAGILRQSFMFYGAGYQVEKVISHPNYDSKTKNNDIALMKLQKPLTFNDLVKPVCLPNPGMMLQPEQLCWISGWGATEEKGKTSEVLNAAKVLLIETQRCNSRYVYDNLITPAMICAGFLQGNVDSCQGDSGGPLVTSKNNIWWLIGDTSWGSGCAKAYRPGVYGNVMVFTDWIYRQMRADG

T1 sequence (O15393 whole entry): as above

ace-Arg-Pro-Arg-kbt [Compound 2]
normalized fluorescence intensity, HEK293T TMPRSS2, Mean (Fig. 4b) ([1]; 0.5 nM): 60.175 | normalized fluorescence intensity, HEK293T TMPRSS2, Mean (Fig. 4b) ([1]; 5 nM): 47.265 | normalized fluorescence intensity, HEK293T TMPRSS2, Mean (Fig. 4b) ([1]; 50 nM): 34.28 | normalized fluorescence intensity, HEK293T TMPRSS2, Mean (Fig. 4b) ([1]; 500 nM): 7.97 | normalized fluorescence intensity, HEK293T TMPRSS2, Mean (Fig. 4b) ([1]; 5000 nM): 0.76 | normalized fluorescence intensity, HEK293T TMPRSS2, Mean (Fig. 4b) ([1]; 50000 nM): -5.7 | IC50 ([1]; corrected for mock-transfected HEK293T cells): 3.5 nM | SARS-CoV-2 spike driven entry, Mean (0 nM = 100) [2]: 80.0549 and 94.4227 and 98.8201 | IC50 ([2]; Caco-2 cells, luciferase 2 days post transduction, read-out: IC50 pseudotyped lentivirus Omicron BA.1): 431 nM | SARS-CoV-2 spike driven entry, Mean (0 nM = 100) ([2]; Fig. 5e, compound 400 nM, […]): 52.4269 | SARS-CoV-2 spike driven entry, Mean (0 nM = 100) ([2]; Fig. 5e, compound 2000 nM, […]): 20.742 | SARS-CoV-2 spike driven entry, Mean (0 nM = 100) ([2]; Fig. 5e, compound 10000 nM, […]): 5.628 | SARS-CoV-2 spike driven entry, Mean (0 nM = 100) ([2]; Fig. 5e, compound 50000 nM, […]): 3.26 | increase in Ki values against TMPRSS2 (TMPRSS2; incubation in human serum during the course of 10 days): 1.4–1.8 fold | TMPRSS2 activity, Mean (0 nM = 100) (TMPRSS2; inhibitor 0.0167 nM, 0 min in serum): 106.1220 | TMPRSS2 activity, Mean (0 nM = 100) (TMPRSS2; inhibitor 0.0167 nM, 30 min in serum): 99.5878 | TMPRSS2 activity, Mean (0 nM = 100) (TMPRSS2; inhibitor 0.0167 nM, 60 min in serum): 97.9753 | TMPRSS2 activity, Mean (0 nM = 100) (TMPRSS2; inhibitor 0.0167 nM, 120 min in serum): 103.1067 | TMPRSS2 activity, Mean (0 nM = 100) (TMPRSS2; inhibitor 0.0167 nM, 24 h in serum): 102.6336 | TMPRSS2 activity, Mean (0 nM = 100) (TMPRSS2; inhibitor 0.0167 nM, 10 d in serum): 99.7199 | TMPRSS2 activity, Mean (0 nM = 100) (TMPRSS2; inhibitor 0.0167 nM, positive ctrl): 99.3394 | TMPRSS2 activity, Mean (0 nM = 100) (TMPRSS2; inhibitor 0.167 nM, 0 min in serum): 105.3800 | TMPRSS2 activity, Mean (0 nM = 100) (TMPRSS2; inhibitor 0.167 nM, 30 min in serum): 98.0548 | TMPRSS2 activity, Mean (0 nM = 100) (TMPRSS2; inhibitor 0.167 nM, 60 min in serum): 98.4409 | TMPRSS2 activity, Mean (0 nM = 100) (TMPRSS2; inhibitor 0.167 nM, 120 min in serum): 101.9976 | TMPRSS2 activity, Mean (0 nM = 100) (TMPRSS2; inhibitor 0.167 nM, 24 h in serum): 99.8791 | TMPRSS2 activity, Mean (0 nM = 100) (TMPRSS2; inhibitor 0.167 nM, 10 d in serum): 99.7654 | TMPRSS2 activity, Mean (0 nM = 100) (TMPRSS2; inhibitor 0.167 nM, positive ctrl): 97.2281 | TMPRSS2 activity, Mean (0 nM = 100) (TMPRSS2; inhibitor 1.665 nM, 0 min in serum): 108.2341 | TMPRSS2 activity, Mean (0 nM = 100) (TMPRSS2; inhibitor 1.665 nM, 30 min in serum): 98.1707 | TMPRSS2 activity, Mean (0 nM = 100) (TMPRSS2; inhibitor 1.665 nM, 60 min in serum): 94.8463 | TMPRSS2 activity, Mean (0 nM = 100) (TMPRSS2; inhibitor 1.665 nM, 120 min in serum): 98.7901 | TMPRSS2 activity, Mean (0 nM = 100) (TMPRSS2; inhibitor 1.665 nM, 24 h in serum): 99.7583 | TMPRSS2 activity, Mean (0 nM = 100) (TMPRSS2; inhibitor 1.665 nM, 10 d in serum): 103.5823 | TMPRSS2 activity, Mean (0 nM = 100) (TMPRSS2; inhibitor 1.665 nM, positive ctrl): 91.5051 | TMPRSS2 activity, Mean (0 nM = 100) (TMPRSS2; inhibitor 16.65 nM, 0 min in serum): 98.1805 | TMPRSS2 activity, Mean (0 nM = 100) (TMPRSS2; inhibitor 16.65 nM, 30 min in serum): 91.6522 | TMPRSS2 activity, Mean (0 nM = 100) (TMPRSS2; inhibitor 16.65 nM, 60 min in serum): 87.0886 | TMPRSS2 activity, Mean (0 nM = 100) (TMPRSS2; inhibitor 16.65 nM, 120 min in serum): 89.1234 | TMPRSS2 activity, Mean (0 nM = 100) (TMPRSS2; inhibitor 16.65 nM, 24 h in serum): 89.0776 | TMPRSS2 activity, Mean (0 nM = 100) (TMPRSS2; inhibitor 16.65 nM, 10 d in serum): 93.1155 | TMPRSS2 activity, Mean (0 nM = 100) (TMPRSS2; inhibitor 16.65 nM, positive ctrl): 59.7913 | TMPRSS2 activity, Mean (0 nM = 100) (TMPRSS2; inhibitor 166.5 nM, 0 min in serum): 41.7125 | TMPRSS2 activity, Mean (0 nM = 100) (TMPRSS2; inhibitor 166.5 nM, 30 min in serum): 36.7343 | TMPRSS2 activity, Mean (0 nM = 100) (TMPRSS2; inhibitor 166.5 nM, 60 min in serum): 32.5087 | TMPRSS2 activity, Mean (0 nM = 100) (TMPRSS2; inhibitor 166.5 nM, 120 min in serum): 34.3878 | TMPRSS2 activity, Mean (0 nM = 100) (TMPRSS2; inhibitor 166.5 nM, 24 h in serum): 36.8130 | TMPRSS2 activity, Mean (0 nM = 100) (TMPRSS2; inhibitor 166.5 nM, 10 d in serum): 52.5195 | TMPRSS2 activity, Mean (0 nM = 100) (TMPRSS2; inhibitor 166.5 nM, positive ctrl): 21.7311 | TMPRSS2 activity, Mean (0 nM = 100) (TMPRSS2; inhibitor 1665 nM, 0 min in serum): 8.0842 | TMPRSS2 activity, Mean (0 nM = 100) (TMPRSS2; inhibitor 1665 nM, 30 min in serum): 8.9275 | TMPRSS2 activity, Mean (0 nM = 100) (TMPRSS2; inhibitor 1665 nM, 60 min in serum): 5.1862 | TMPRSS2 activity, Mean (0 nM = 100) (TMPRSS2; inhibitor 1665 nM, 120 min in serum): 6.5663 | TMPRSS2 activity, Mean (0 nM = 100) (TMPRSS2; inhibitor 1665 nM, 24 h in serum): 7.0802
